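Five compound concentrations were applied to cells in 96-well plates for 48 hours; endpoints were derived by simple linear interpolation of the resulting dose-response curve. GI50: concentration for 50% inhibition of growth.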 Active and inactive are the calls of the source. Cut-off read from the data, not from the text of the source: active = GI50 up to about 1.1 µM and inactive = higher.
Legend:
Assay in all cases: NCI-60 cell line screen, 48 h
OVCAR-3 = system: OVCAR-3
SN12C = system: SN12C
NCI-H226 = system: NCI-H226
HOP-92 = system: HOP-92
EKVX = system: EKVX
UO-31 = system: UO-31
RXF 393 = system: RXF 393
SF-539 = system: SF-539
TK-10 = system: TK-10
MOLT-4 = system: MOLT-4
SK-MEL-2 = system: SK-MEL-2
MDA-MB-435 = system: MDA-MB-435
NCI-H23 = system: NCI-H23
CCRF-CEM = system: CCRF-CEM
786-0 = system: 786-0
SK-MEL-28 = system: SK-MEL-28
NCI-H522 = system: NCI-H522
SF-295 = system: SF-295
CAKI-1 = system: CAKI-1
LOX IMVI = system: LOX IMVI

| Compound | GI50 (OVCAR-3) | GI50 (SN12C) | GI50 (NCI-H226) | GI50 (HOP-92) | GI50 (EKVX) | GI50 (UO-31) | GI50 (RXF 393) | GI50 (SF-539) | GI50 (TK-10) | GI50 (MOLT-4) | GI50 (SK-MEL-2) | GI50 (MDA-MB-435) | GI50 (NCI-H23) | GI50 (CCRF-CEM) | GI50 (786-0) | GI50 (SK-MEL-28) | GI50 (NCI-H522) | GI50 (SF-295) | GI50 (CAKI-1) | GI50 (LOX IMVI) |
| --- | --- | --- | --- | --- | --- | --- | --- | --- | --- | --- | --- | --- | --- | --- | --- | --- | --- | --- | --- | --- |
| COC(=O)/C=C\n1c(C)cc(=O)[nH]c1=O | > 100 µM (inactive) | > 100 µM (inactive) | > 100 µM (inactive) | > 100 µM (inactive) | > 100 µM (inactive) | > 100 µM (inactive) | > 100 µM (inactive) | > 100 µM (inactive) | > 100 µM (inactive) | > 100 µM (inactive) | > 100 µM (inactive) | > 100 µM (inactive) | > 100 µM (inactive) | > 100 µM (inactive) | > 100 µM (inactive) | > 100 µM (inactive) | > 100 µM (inactive) | > 100 µM (inactive) | – | – |
| OC(Cc1cccc2ccccc12)CN1CCC(c2ccccc2)CC1 (stereo not drawn) | 15.1 µM (inactive) | 16.5 µM (inactive) | – | 12.4 µM (inactive) | 14 µM (inactive) | 0.0241 µM (active) | 10.2 µM (inactive) | 17.3 µM (inactive) | 12.8 µM (inactive) | – | – | 15.1 µM (inactive) | 15.3 µM (inactive) | 18.5 µM (inactive) | 15 µM (inactive) | 13.4 µM (inactive) | 9.48 µM (inactive) | 13.2 µM (inactive) | 11.1 µM (inactive) | 15.5 µM (inactive) |
| O=C1OC(C2(O)OC(=O)c3ccccc32)c2ccccc21 (stereo not drawn) | > 100 µM (inactive) | > 100 µM (inactive) | > 100 µM (inactive) | > 100 µM (inactive) | 62.4 µM (inactive) | > 100 µM (inactive) | > 100 µM (inactive) | > 100 µM (inactive) | > 100 µM (inactive) | > 100 µM (inactive) | > 100 µM (inactive) | > 100 µM (inactive) | > 100 µM (inactive) | – | > 100 µM (inactive) | > 100 µM (inactive) | > 100 µM (inactive) | > 100 µM (inactive) | > 100 µM (inactive) | > 100 µM (inactive) |
| Cc1cc(C23OC4COC(C)(C)OC4C2OC(C)(C)O3)nc2ccccc12 (stereo not drawn) | > 100 µM (inactive) | > 100 µM (inactive) | > 100 µM (inactive) | > 100 µM (inactive) | > 100 µM (inactive) | > 100 µM (inactive) | > 100 µM (inactive) | > 100 µM (inactive) | > 100 µM (inactive) | 25.5 µM (inactive) | > 100 µM (inactive) | > 100 µM (inactive) | > 100 µM (inactive) | 32.1 µM (inactive) | > 100 µM (inactive) | > 100 µM (inactive) | > 100 µM (inactive) | > 100 µM (inactive) | – | > 100 µM (inactive) |
| CCCCCCCCCCC(O)C1CCC(C2CCC(C(O)CCCCC(O)CCCCCC(O)CC3=CC(C)OC3=O)O2)O1 (stereo not drawn) | > 25 µM (inactive) | 9.48 µM (inactive) | 3.82 µM (inactive) | > 25 µM (inactive) | 4.09 µM (inactive) | > 25 µM (inactive) | > 17.2 µM (inactive) | > 25 µM (inactive) | > 25 µM (inactive) | 2.97 µM (inactive) | > 25 µM (inactive) | > 25 µM (inactive) | – | – | > 25 µM (inactive) | > 25 µM (inactive) | 19.1 µM (inactive) | 19.9 µM (inactive) | > 25 µM (inactive) | 2.69 µM (inactive) |
| COc1ccc2[nH]c3cc4c(=O)c5cc(OC)ccc5[nH]c4cc3c(=O)c2c1 | > 100 µM (inactive) | > 100 µM (inactive) | > 100 µM (inactive) | > 100 µM (inactive) | > 100 µM (inactive) | 97.5 µM (inactive) | > 100 µM (inactive) | – | > 100 µM (inactive) | > 100 µM (inactive) | > 100 µM (inactive) | > 100 µM (inactive) | > 100 µM (inactive) | – | 99.1 µM (inactive) | > 100 µM (inactive) | > 100 µM (inactive) | > 100 µM (inactive) | > 100 µM (inactive) | – |

Reference: ChEMBL document CHEMBL1201862, “PubChem BioAssay data set” (2004)
